Results as given in PubChem BioAssay AID328 (DTP/NCI, 2004).
Inconclusive results and toxic doses are left out.

Tested on: BDF1 mice, P388 leukemia ip, median survival T/C
Assay: NCI In Vivo Anticancer Drug Screen. Data for tumor model P388 Leukemia (intraperitoneal) in B6D2F1 (BDF1) mice
Conditions: endpoint: median survival time, higher = longer survival
Summary of the method: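 Compound-treated tumour-bearing mice were compared with vehicle-treated controls. Survival was recorded, and the value is the treated-group measurement divided by the control-group measurement (T/C).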

[1] = dose: 100.0 mg/kg/injection, schedule: Q01DX009 (ip), vehicle: saline with Tween-80
[2] = dose: 100.0 mg/kg/injection, schedule: Q04DX003 (ip), vehicle: saline with Tween-80
[3] = dose: 200.0 mg/kg/injection, schedule: Q01DX009 (ip), vehicle: saline with Tween-80
[4] = dose: 200.0 mg/kg/injection, schedule: Q04DX003 (ip), vehicle: saline with Tween-80
[5] = dose: 400.0 mg/kg/injection, schedule: Q01DX009 (ip), vehicle: saline with Tween-80
[6] = dose: 400.0 mg/kg/injection, schedule: Q04DX003 (ip), vehicle: saline with Tween-80

With CCS(=O)(=O)CC the T/C (dose: 100.0 mg/kg/injection, schedule: Q04DX003 (ip), vehicle: saline sonified) was 95 % of control, the T/C (dose: 200.0 mg/kg/injection, schedule: Q04DX003 (ip), vehicle: saline sonified) was 100 % of control and the T/C (dose: 400.0 mg/kg/injection, schedule: Q04DX003 (ip), vehicle: saline sonified) was 100 % of control.
Cc1cc(C)[n+](C)c2cc3ccccc3cc12 was tested, and the T/C (dose: 50.0 mg/kg/injection, schedule: Q01DX005 (ip), vehicle: saline with Tween-80) was 155 % of control.
In the case of COc1cc(/C=N/Nc2ccc([N+](=O)[O-])cc2)cc(OC)c1OC, the T/C (dose: 50.0 mg/kg/injection, schedule: Q04DX003 (ip), vehicle: saline with Tween-80) is reported as 100 % of control, the T/C [1] is reported as 95 % of control and the T/C [2] is reported as 95 % of control. For the same compound, the T/C [3] was 95 % of control, the T/C [4] was 105 % of control and the T/C [5] was 100 % of control.
In the case of CC(=O)Nc1ccc2c(c1)OCO2, the T/C (dose: 50.0 mg/kg/injection, schedule: Q01DX009 (ip), vehicle: saline with Tween-80) is reported as 104 % of control, the T/C [1] is reported as 104 % of control and the T/C [2] is reported as 95 % of control. For the same compound, the T/C [3] was 90 % of control and the T/C [4] was 113 % of control.
CC1(C)C(=O)C2(C(=O)O)CCC1C2 (stereo not drawn) was tested, and the T/C [1] was 100 % of control, the T/C [2] was 95 % of control and the T/C [3] was 95 % of control. The T/C [4] was 109 % of control, the T/C [5] was 100 % of control and the T/C [6] was 100 % of control.
c1ccc2c(c1)nnn1c3cnccc3nc21 was tested, and the T/C (dose: 6.25 mg/kg/injection, schedule: Q01DX009 (ip), vehicle: saline with Tween-80) was 120 % of control.
For NC(CCC(=O)NC(CSC(c1ccccc1)(c1ccccc1)c1ccc(F)cc1)C(=O)NCC(=O)O)C(=O)O (stereo not drawn), the T/C (dose: 115.0 mg/kg/injection, schedule: Q04DX003 (ip), vehicle: saline) was 118 % of control, the T/C (dose: 177.0 mg/kg/injection, schedule: Q04DX003 (ip), vehicle: saline with Tween-80) was 118 % of control and the T/C (dose: 266.0 mg/kg/injection, schedule: Q04DX003 (ip), vehicle: saline with Tween-80) was 159 % of control. The T/C (dose: 266.0 mg/kg/injection, schedule: Q04DX003 (ip), vehicle: saline) was 181 % of control and the T/C [6] was 231 % of control.
For COc1cc2c(cc1OC)C(C)=NCC2, the T/C (dose: 3.0 mg/kg/injection, schedule: Q01DX001 (ip), vehicle: saline) was 104 % of control, the T/C (dose: 6.0 mg/kg/injection, schedule: Q01DX001 (ip), vehicle: saline) was 104 % of control and the T/C (dose: 12.0 mg/kg/injection, schedule: Q01DX001 (ip), vehicle: saline) was 108 % of control. The T/C (dose: 12.0 mg/kg/injection, schedule: Q01DX009 (ip), vehicle: saline) was 100 % of control, the T/C (dose: 12.0 mg/kg/injection, schedule: Q04DX003 (ip), vehicle: saline) was 95 % of control and the T/C (dose: 25.0 mg/kg/injection, schedule: Q01DX001 (ip), vehicle: saline) was 104 % of control. The T/C (dose: 25.0 mg/kg/injection, schedule: Q01DX009 (ip), vehicle: saline) was 100 % of control, the T/C (dose: 25.0 mg/kg/injection, schedule: Q04DX003 (ip), vehicle: saline) was 104 % of control and the T/C (dose: 50.0 mg/kg/injection, schedule: Q01DX001 (ip), vehicle: saline) was 108 % of control. For the same compound, the T/C (dose: 50.0 mg/kg/injection, schedule: Q01DX009 (ip), vehicle: saline) was 95 % of control and the T/C (dose: 50.0 mg/kg/injection, schedule: Q04DX003 (ip), vehicle: saline) was 100 % of control.
For Cc1ccc(C(=O)[O][Hg][CH2]C2COC([CH2][Hg][O]C(=O)c3ccc(C)cc3)CO2)cc1 (stereo not drawn), the T/C (dose: 2.25 mg/kg/injection, schedule: Q01DX009 (ip), vehicle: saline with Tween-80) was 90 % of control, the T/C (dose: 6.25 mg/kg/injection, schedule: Q01DX009 (ip), vehicle: saline sonified) was 110 % of control and the T/C (dose: 6.25 mg/kg/injection, schedule: Q04DX003 (ip), vehicle: saline with Tween-80) was 107 % of control. The T/C (dose: 12.5 mg/kg/injection, schedule: Q04DX003 (ip), vehicle: saline with Tween-80) was 107 % of control, the T/C (dose: 25.0 mg/kg/injection, schedule: Q01DX009 (ip), vehicle: Klucel (hydroxypropylcellulose) (HPC)) was 109 % of control and the T/C (dose: 25.0 mg/kg/injection, schedule: Q01DX009 (ip), vehicle: saline sonified) was 150 % of control. The T/C (dose: 25.0 mg/kg/injection, schedule: Q04DX003 (ip), vehicle: saline with Tween-80) was 103 % of control, the T/C (dose: 50.0 mg/kg/injection, schedule: Q01DX009 (ip), vehicle: Klucel (hydroxypropylcellulose) (HPC)) was 109 % of control and the T/C (dose: 100.0 mg/kg/injection, schedule: Q01DX009 (ip), vehicle: Klucel (hydroxypropylcellulose) (HPC)) was 86 % of control. The T/C (dose: 225.0 mg/kg/injection, schedule: Q04DX003 (ip), vehicle: Klucel (hydroxypropylcellulose) (HPC)) was 109 % of control.
